{"source": "patent US9040506B2", "about": "“7,11-methanocycloocta [B] quinoline derivative as highly functionalizable acetylcholinesterase inhibitors” (priority 2010, dated 2015)", "key": {"rh-AChE": {"molecular_target": "rh-AChE (Homo sapiens, UniProt P22303)", "sequence (P22303 32-614)": "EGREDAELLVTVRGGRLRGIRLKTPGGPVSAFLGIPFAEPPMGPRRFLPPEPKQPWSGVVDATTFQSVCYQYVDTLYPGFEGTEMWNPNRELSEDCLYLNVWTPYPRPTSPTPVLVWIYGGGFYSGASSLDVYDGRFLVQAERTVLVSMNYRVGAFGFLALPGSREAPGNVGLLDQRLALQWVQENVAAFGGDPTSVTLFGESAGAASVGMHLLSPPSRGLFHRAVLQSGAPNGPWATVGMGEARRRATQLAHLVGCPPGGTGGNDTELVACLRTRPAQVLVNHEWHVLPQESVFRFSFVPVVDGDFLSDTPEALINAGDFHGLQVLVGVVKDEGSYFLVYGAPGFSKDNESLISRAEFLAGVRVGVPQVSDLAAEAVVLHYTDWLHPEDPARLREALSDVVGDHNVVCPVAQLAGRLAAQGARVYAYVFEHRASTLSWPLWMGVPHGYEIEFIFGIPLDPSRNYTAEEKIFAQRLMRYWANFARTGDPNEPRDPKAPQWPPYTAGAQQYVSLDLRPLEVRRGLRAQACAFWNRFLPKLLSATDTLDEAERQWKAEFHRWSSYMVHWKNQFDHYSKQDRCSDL", "assay": "biochemical", "conditions": "read-out: IC50 rh-AChE"}, "rh-BuChE": {"molecular_target": "rh-BuChE (Homo sapiens, UniProt P06276)", "sequence (P06276 29-602)": "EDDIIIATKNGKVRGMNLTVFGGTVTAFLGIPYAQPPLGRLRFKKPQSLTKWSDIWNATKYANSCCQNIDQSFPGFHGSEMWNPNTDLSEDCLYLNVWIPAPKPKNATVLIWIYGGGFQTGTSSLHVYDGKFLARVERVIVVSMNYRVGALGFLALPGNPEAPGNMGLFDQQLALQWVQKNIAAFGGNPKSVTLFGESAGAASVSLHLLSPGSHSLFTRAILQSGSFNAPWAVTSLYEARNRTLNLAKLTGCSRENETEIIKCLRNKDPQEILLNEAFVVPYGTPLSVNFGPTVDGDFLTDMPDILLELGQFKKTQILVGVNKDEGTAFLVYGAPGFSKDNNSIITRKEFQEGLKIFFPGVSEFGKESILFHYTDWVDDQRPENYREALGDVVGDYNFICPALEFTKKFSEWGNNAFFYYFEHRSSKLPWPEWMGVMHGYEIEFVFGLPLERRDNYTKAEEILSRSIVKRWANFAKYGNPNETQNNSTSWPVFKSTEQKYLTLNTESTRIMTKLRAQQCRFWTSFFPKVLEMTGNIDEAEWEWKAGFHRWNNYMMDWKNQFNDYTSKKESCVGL", "assay": "IC50 rh-BuChE", "assay_type": "biochemical"}, "erythrocyte h-AChE": {"molecular_target": "T1, erythrocyte h-AChE (Homo sapiens, UniProt P22303)", "T1 construct": "from tissue; host or cells: human erythrocytes", "T1 sequence (P22303 32-617 isoform P22303-2 limits assumed)": "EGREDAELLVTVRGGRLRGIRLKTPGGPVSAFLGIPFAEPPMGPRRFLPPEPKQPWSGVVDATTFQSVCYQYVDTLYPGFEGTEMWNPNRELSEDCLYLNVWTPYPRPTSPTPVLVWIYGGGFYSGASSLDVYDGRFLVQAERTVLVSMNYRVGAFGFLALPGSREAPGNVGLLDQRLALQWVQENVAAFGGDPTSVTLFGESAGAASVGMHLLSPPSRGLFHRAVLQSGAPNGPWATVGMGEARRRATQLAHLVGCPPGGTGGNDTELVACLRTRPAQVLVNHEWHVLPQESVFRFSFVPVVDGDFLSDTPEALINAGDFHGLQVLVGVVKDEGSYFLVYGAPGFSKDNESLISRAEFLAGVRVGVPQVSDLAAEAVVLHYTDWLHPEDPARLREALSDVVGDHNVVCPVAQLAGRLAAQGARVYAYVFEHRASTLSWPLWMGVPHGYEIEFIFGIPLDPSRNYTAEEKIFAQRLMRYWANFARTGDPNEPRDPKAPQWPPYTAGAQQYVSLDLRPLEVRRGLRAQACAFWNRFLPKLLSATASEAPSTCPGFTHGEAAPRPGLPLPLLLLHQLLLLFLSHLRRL", "assay": "IC50 erythrocyte h-AChE", "assay_type": "biochemical"}, "AChE [1]": {"molecular_target": "T2, AChE (Homo sapiens, UniProt P22303)", "T2 sequence (P22303 32-614)": "as the sequence (P22303 32-614) above", "assay": "AChE inhibition, general statements", "assay_type": "biochemical"}, "AChE [2]": {"molecular_target": "T2, AChE", "conditions": "Camps et al.; cited from earlier work"}, "[3]": {"conditions": "read-out: IC50 erythrocyte h-AChE"}}, "note": "Structures can show the parent of a compound that is named as a salt. Where two headings read alike, the source gives them in different places.", "data": [{"smiles": "Nc1c2c(nc3cc(Cl)ccc13)CC1C=C(CCO)CC2C1", "note": "(centres unmarked) [HUP 2, 2-(12-Amino-3-chloro-6,7,10,11-tetrahydro-7,11-methanocycloocta[b]quinolin-9-yl) Ethanol]", "values": [{"measurement": "IC50", "setting": "rh-AChE", "value": "1.05 ± 0.13", "unit": "nM"}, {"measurement": "IC50", "setting": "rh-BuChE; read-out: IC50 rh-BuChE", "value": 1240, "unit": "nM"}, {"measurement": "IC50", "setting": "erythrocyte h-AChE; [3]", "value": 6.15, "unit": "nM"}, {"measurement": "activity compared with Huprine X", "setting": "AChE [1]", "value": "as high as the Huprine X"}]}, {"smiles": "Nc1c2c(nc3cc(Cl)ccc13)CC1C=C(CCOC(=O)C(F)(F)F)CC2C1", "note": "(centres unmarked) [HUP 5, 2-(12-Amino-3-chloro-6,7,10,11-tetrahydro-7,11-methanocycloocta[b]quinolin-9-yl)ethyl Trifluoroacetate]", "values": [{"measurement": "IC50", "setting": "rh-AChE", "value": "1.69 ± 0.16", "unit": "nM"}, {"measurement": "IC50", "setting": "rh-BuChE; read-out: IC50 rh-BuChE", "value": 1360, "unit": "nM"}, {"measurement": "IC50", "setting": "erythrocyte h-AChE; [3]", "value": 27.5, "unit": "nM"}]}, {"smiles": "CCOC(=O)CC1=CC2Cc3nc4cc(Cl)ccc4c(N)c3C(C1)C2", "note": "(centres unmarked) [HUP 1, Ethyl (12-Amino-3-chloro-6,7,10,11-tetrahydro-7,11-methanocycloocta[b]quinolin-9-yl)acetate]", "values": [{"measurement": "IC50", "setting": "rh-AChE", "value": "3.9 ± 0.5", "unit": "nM"}, {"measurement": "IC50", "setting": "rh-BuChE; read-out: IC50 rh-BuChE", "value": "137 ± 11", "unit": "nM"}, {"measurement": "IC50", "setting": "erythrocyte h-AChE; [3]", "value": 38.3, "unit": "nM"}]}, {"smiles": "CCC1=CC2Cc3nc4cc(Cl)ccc4c(N)c3[C@@H](C1)C2", "note": "[Huprine X]", "values": [{"measurement": "IC50", "setting": "AChE [2]", "value": "~1", "unit": "nM"}]}, {"smiles": "CS(=O)(=O)OCCCCC1=CC2Cc3nc4cc(Cl)ccc4c(N)c3C(C1)C2", "note": "(centres unmarked) [HUP 31, 4-(12-Amino-3-chloro-6,7,10,11-tetrahydro-7,11-methanocycloocta[b]quinolin-9-yl)butyl Methanesulfonate]", "values": [{"measurement": "IC50", "setting": "rh-AChE", "value": "4.76 ± 1.68", "unit": "nM"}, {"measurement": "IC50", "setting": "rh-BuChE; read-out: IC50 rh-BuChE", "value": "243 ± 12", "unit": "nM"}, {"measurement": "IC50", "setting": "erythrocyte h-AChE; [3]", "value": 13.3, "unit": "nM"}]}, {"smiles": "COC(=O)c1cn(CCCCC2=CC3Cc4nc5cc(Cl)ccc5c(N)c4C(C2)C3)nn1", "note": "(centres unmarked) [HUP 33, Methyl 1-[4-(12-Amino-3-chloro-6,7,10,11-tetrahydro-7,11-methanocycloocta[b]quinolin-9-yl)butyl]-1H-1,2,3-triazole-4-carboxylate]", "values": [{"measurement": "IC50", "setting": "rh-AChE", "value": "0.34 ± 0.12", "unit": "nM"}, {"measurement": "IC50", "setting": "rh-BuChE; read-out: IC50 rh-BuChE", "value": "291 ± 25", "unit": "nM"}, {"measurement": "IC50", "setting": "erythrocyte h-AChE; [3]", "value": 10.7, "unit": "nM"}]}, {"smiles": "Nc1c2c(nc3cc(Cl)ccc13)CC1C=C(CCCl)CC2C1", "note": "(centres unmarked) [HUP 9, 3-Chloro-9-(2-chloroethyl)-6,7,10,11-tetrahydro-7,11-methanocycloocta[b]quinolin-12-amine Trifluoroacetic Acid]", "values": [{"measurement": "IC50", "setting": "rh-AChE", "value": "3.56 ± 0.2", "unit": "nM"}, {"measurement": "IC50", "setting": "rh-BuChE; read-out: IC50 rh-BuChE", "value": "207 ± 12", "unit": "nM"}, {"measurement": "IC50", "setting": "erythrocyte h-AChE; [3]", "value": 5.09, "unit": "nM"}]}, {"smiles": "Nc1c2c(nc3cc(Cl)ccc13)CC1C=C(CCCCn3cc(CO)nn3)CC2C1", "note": "(centres unmarked) [HUP 34, {1-[4-(12-Amino-3-chloro-6,7,10,11-tetrahydro-7,11-methanocycloocta[b]quinolin-9-yl)butyl]-1H-1,2,3-triazol-4-yl}methanol Trifluoroacetic Acid]", "values": [{"measurement": "IC50", "setting": "rh-AChE", "value": "0.26 ± 0.08", "unit": "nM"}, {"measurement": "IC50", "setting": "rh-BuChE; read-out: IC50 rh-BuChE", "value": "213 ± 18", "unit": "nM"}, {"measurement": "IC50", "setting": "erythrocyte h-AChE; [3]", "value": 6.91, "unit": "nM"}]}, {"smiles": "COCCC1=CC2Cc3nc4cc(Cl)ccc4c(N)c3C(C1)C2", "note": "(centres unmarked) [HUP 6, 3-Chloro-9-(2-methoxyethyl)-6,7,10,11-tetrahydro-7,11-methanocycloocta[b]quinolin-12-amine]", "values": [{"measurement": "IC50", "setting": "rh-AChE", "value": "1.75 ± 0.21", "unit": "nM"}, {"measurement": "IC50", "setting": "rh-BuChE; read-out: IC50 rh-BuChE", "value": "401 ± 26", "unit": "nM"}, {"measurement": "IC50", "setting": "erythrocyte h-AChE; [3]", "value": 4.5, "unit": "nM"}]}, {"smiles": "COC(=O)CCCC1=CC2Cc3nc4cc(Cl)ccc4c(N)c3C(C1)C2", "note": "(centres unmarked) [HUP 29, Methyl 4-(12-Amino-3-chloro-6,7,10,11-tetrahydro-7,11-methanocycloocta[b]quinolin-9-yl)butanoate]", "values": [{"measurement": "IC50", "setting": "rh-AChE", "value": "14.6 ± 1.7", "unit": "nM"}, {"measurement": "IC50", "setting": "rh-BuChE", "value": "124 ± 11", "unit": "nM"}, {"measurement": "IC50", "setting": "erythrocyte h-AChE", "value": 37.6, "unit": "nM"}]}]}
